Results: patent publication US5624923A, “Tricyclic diazepine vasopressin antagonists and oxytocin antagonists” (priority 1995, dated 1997)

How the values were obtained:
Rat Hepatic V1 Receptors = target: T1, Rat Hepatic V1 Receptors (Rattus norvegicus, UniProt P30560); experiment: Binding Assay to Rat Hepatic V1 Receptors; conditions: for IC50: rat liver membranes, read-out: V1 IC50; for inhibition at 10 µM: 2 h, rat
T1 construct: Rat liver plasma membranes expressing the vasopressin V1 receptor subtypes; from tissue; host or cells: rat liver plasma membranes
T1 sequence (P30560 whole entry): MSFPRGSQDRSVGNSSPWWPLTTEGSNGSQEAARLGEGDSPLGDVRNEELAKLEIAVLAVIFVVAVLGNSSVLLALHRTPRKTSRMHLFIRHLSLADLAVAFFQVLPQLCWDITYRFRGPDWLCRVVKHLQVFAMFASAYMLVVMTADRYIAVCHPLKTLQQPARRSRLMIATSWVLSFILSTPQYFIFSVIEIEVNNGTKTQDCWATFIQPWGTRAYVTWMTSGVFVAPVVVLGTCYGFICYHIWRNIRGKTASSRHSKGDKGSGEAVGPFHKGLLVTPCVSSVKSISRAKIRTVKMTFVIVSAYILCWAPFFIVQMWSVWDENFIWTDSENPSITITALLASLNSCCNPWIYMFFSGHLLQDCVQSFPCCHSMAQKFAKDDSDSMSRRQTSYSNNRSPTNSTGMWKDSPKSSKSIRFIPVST

Vasopressin V2 = Vasopressin V2 Antagonist Activity in Conscious Hydrated Rats; format: in vivo, rat; conditions: AVP 0.4 μg/kg i.p.
Procedure, shortened: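 Four-hour urine output, osmolality and electrolytes (Na+, K+, Cl−) recorded in water-loaded rats (30 mL/kg deionized water orally) given AVP i.p. at 0.4 μg/kg. Test compounds were given orally at 0.1–100 mg/kg 1 h before AVP; 2–4 rats per compound.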

Row | Compound | IC50 (Rat Hepatic V1 Receptors) | Osmolality (Vasopressin V2; 10 mg/kg orally) | Urine Volume (Vasopressin V2; 10 mg/kg orally) | other results
1 | O=C(Nc1ccc(C(=O)N2Cc3cccn3Cc3ccccc32)cc1)C(O)c1ccccc1 (racemic) [Example 588, (±) α-Hydroxy-N-[4-(5H-pyrrolo[2,1c][1,4]benzodiazepin-10(11H)-ylcarbonyl)phenyl]benzeneacetamide] | 40 nM | 687 mOsm/kg | 9.5 ml/4 hrs | –
2 | Cc1ccccc1C(=O)Nc1ccc(C(=O)N2Cc3cccn3Cc3ccccc32)cc1 [Example 3, 2-Methyl-N-[4-(5H-pyrrolo[2,1-c][1,4]-benzodiazepin-10(11H)-ylcarbonyl)phenyl]benzamide] | 38 nM | 567 ± 33 mOsm/kg | 15.8 ± 1 ml/4 hrs | Osmolality (Vasopressin V2; 1 mg/kg orally): 515 ± 79 mOsm/kg; Urine Volume (Vasopressin V2; 1 mg/kg orally): 6.5 ± 1 ml/4 hrs; Osmolality (Vasopressin V2; 3 mg/kg orally): 584 ± 56 mOsm/kg; Urine Volume (Vasopressin V2; 3 mg/kg orally): 9.6 ± 0.9 ml/4 hrs
3 | O=C(Nc1ccc(C(=O)N2Cc3cccn3Cc3ccccc32)cc1)c1cc(Cl)ccc1Cl [Example 4, N-[4-(5H-pyrrolo[2,1-c][1,4]benzodiazepin-10(11H)-ylcarbonyl)phenyl]-2,5-dichlorobenzamide] | 120 nM | 571 mOsm/kg | 16.9 ml/4 hrs | Osmolality (Vasopressin V2; 1 mg/kg orally): 1129 mOsm/kg; Urine Volume (Vasopressin V2; 1 mg/kg orally): 2 ml/4 hrs; Osmolality (Vasopressin V2; 3 mg/kg orally): 646 ± 115 mOsm/kg; Urine Volume (Vasopressin V2; 3 mg/kg orally): 9.5 ± 1.2 ml/4 hrs
4 | O=C(Nc1ccc(C(=O)N2Cc3cccn3Cc3ccccc32)cc1)c1ccc(Cl)cc1Cl [Example 6, N-[4-(5H-pyrrolo[2,1-c][1,4]benzodiazepin-10(11H)-ylcarbonyl)phenyl]-2,4-dichlorobenzamide] | 23 nM | 346 ± 25 mOsm/kg | 20.4 ± 1.1 ml/4 hrs | Osmolality (Vasopressin V2; 1 mg/kg orally): 970 mOsm/kg; Urine Volume (Vasopressin V2; 1 mg/kg orally): 6 ml/4 hrs; Osmolality (Vasopressin V2; 3 mg/kg orally): 519 ± 30 mOsm/kg; Urine Volume (Vasopressin V2; 3 mg/kg orally): 15 ± 1.6 ml/4 hrs; Osmolality (Vasopressin V2; 30 mg/kg orally): 616 ± 87 mOsm/kg; Urine Volume (Vasopressin V2; 30 mg/kg orally): 17.9 ± 1.3 ml/4 hrs
5 | O=C(Nc1ccc(C(=O)N2Cc3cccn3Cc3ccccc32)cc1)c1ccccc1Cl [Example 7] | 10 nM | 780 mOsm/kg | 9 ml/4 hrs | Osmolality (Vasopressin V2; 30 mg/kg orally): 815 mOsm/kg; Urine Volume (Vasopressin V2; 30 mg/kg orally): 12.4 ml/4 hrs
6 | O=C(Nc1ccc(C(=O)N2Cc3cccn3-c3ccccc32)cc1)c1ccc(Cl)cc1Cl [Example 17, N-[4-(pyrrolo(1,2-a]quinoxalin-5(4H)-ylcarbonyl)phenyl]-2,4-dichloro-benzamide] | 1200 nM | – | – | Osmolality (Vasopressin V2; 30 mg/kg orally): 1374 mOsm/kg; Urine Volume (Vasopressin V2; 30 mg/kg orally): 4.1 ml/4 hrs
7 | CSc1ccccc1C(=O)Nc1ccc(C(=O)N2Cc3cccn3Cc3ccccc32)cc1 [Example 85, N-[4-(5H-Pyrrolo[2,1-c][1,4]benzodiazepin-10(11H)-ylcarbonyl)phenyl]-2-(methylthio)benzamide] | 9 nM | – | – | –
8 | Cc1ccccc1CC(=O)Nc1ccc(C(=O)N2Cc3cccn3Cc3ccccc32)cc1 [Example 93, N-[4(5H-Pyrrolo[2,1-c][1,4]benzodiazepin-10(11H)-ylcarbonyl)phenyl]-2-methylbenzeneacetamide] | 0.9 nM | – | – | –
9 | Cc1ccccc1C(=O)Nc1ccc(C(=O)N2Cc3ccnn3Cc3ccccc32)cc1 [Example 210, N-[4-(4H-Pyrazolo[5,1-c][1,4]benzodiazepin-5(10H)-ylcarbonyl)phenyl]-2-methylbenzamide] | 58 nM | 451 mOsm/kg | 15.2 ml/4 hrs | –
10 | O=C(Nc1ccc(C(=O)N2Cc3cccn3Cc3ccccc32)cc1)c1c(Cl)cccc1Cl [Example 469, N-[4-(5H-pyrrolo[2,1-c][1,4]benzodiazepin-10(11H)-ylcarbonyl)phenyl]-2,6-dichlorobenzamide] | 94 nM | 548 mOsm/kg | 11.3 ml/4 hrs | –
11 | Cc1ccccc1C(=O)Nc1ccc(C(=O)N2Cc3cccn3Cc3ccccc32)c(Cl)c1 [Example 470] | 54 nM | 387 mOsm/kg | 17 ml/4 hrs | –
12 | O=C(Nc1ccc(C(=O)N2Cc3cccn3Cc3ccccc32)c(Cl)c1)c1ccc(Cl)cc1Cl [Example 471] | 45 nM | 507 ± 38 mOsm/kg | 14.1 ± 1.9 ml/4 hrs | –
13 | Cc1ccccc1C(=O)Nc1c(C)cc(C(=O)N2Cc3cccn3Cc3ccccc32)cc1C [Example 472] | 890 nM | 1453 mOsm/kg | 4.3 ml/4 hrs | –
14 | O=C(Nc1ccc(C(=O)N2Cc3cccn3Cc3ccccc32)cc1)c1cccc(C(F)(F)F)c1 [Example 474, N-[4-(5H-pyrrolo[2,1-c][1,4]benzodiazepin-10(11H)-ylcarbonyl)phenyl]-3-(trifluoromethyl)benzamide] | 87 nM | 619 mOsm/kg | 11.5 ml/4 hrs | –
15 | O=C(Nc1ccc(C(=O)N2Cc3cccn3Cc3ccccc32)cc1)c1sccc1Cl [Example 476, N-[4-(5H-pyrrolo[2,1-c][1,4]benzodiazepin-10(11H)-ylcarbonyl)phenyl]-3-chlorothiophene-2-carboxamide] | 84 nM | 1233 mOsm/kg | 5 ml/4 hrs | –
16 | COc1cc(C(=O)N2Cc3cccn3Cc3ccccc32)ccc1NC(=O)c1cccc(F)c1C [Example 479, N-[4-(5H-pyrrolo[2,1-c][1,4]benzodiazepin-10(11H)-ylcarbonyl)-2-methoxy-phenyl]-3-fluoro-2-methylbenzamide] | – | 1042 mOsm/kg | 6 ml/4 hrs | –
17 | Cc1c(F)cccc1C(=O)Nc1ccc(C(=O)N2Cc3cccn3Cc3ccccc32)c(Cl)c1 [Example 481, N-[4-(5H-pyrrolo[2,1-c][1,4]benzodiazepin-10(11H)-ylcarbonyl)-3-chlorophenyl]-3-fluoro-2-methylbenzamide] | 1000 nM | 473 mOsm/kg | 17.2 ml/4 hrs | –
18 | Cc1ccc(F)cc1C(=O)Nc1ccc(C(=O)N2Cc3cccn3Cc3ccccc32)c(Cl)c1 [Example 482, N-[4-(5H-pyrrolo[2,1-c][1,4]benzodiazepin-10(11H)-ylcarbony)-3-chlorophenyl]-5-fluoro-2-methylbenzamide] | 410 nM | 372 ± 17 mOsm/kg | 22 ± 0.9 ml/4 hrs | –
19 | Cc1cccc(NC(=O)c2ccc(C(=O)N3Cc4cccn4Cc4ccccc43)cc2)c1C [Example 485, N-(2,3-Dimethylphenyl)-4-(5H-pyrrolo[2,1-c][1,4]benzodiazepin-10(11H)-ylcarbonyl)benzamide] | 240 nM | 961 mOsm/kg | 4 ml/4 hrs | –
20 | COC(=O)c1ccc(C(=O)Nc2ccc(C(=O)N3Cc4cccn4Cc4ccccc43)cc2)cc1 [Example 489] | – | 1194 mOsm/kg | 6.1 ml/4 hrs | inhibition at 10 µM (Rat Hepatic V1 Receptors): 61%
21 | CN(C)CN(C(=O)c1ccc(Cl)cc1Cl)c1ccc(C(=O)N2Cc3cccn3Cc3ccccc32)cc1 [Example 490, N-[(Dimethylamino)methyl]-N-[4-(5H-pyrrolo[2,1-c][1,4]benzodiazepin-10(11H)-ylcarbonyl)phenyl]-2,4-dichlorobenzamide] | 14 nM | 487 ± 38 mOsm/kg | 71.5 ± 1.6 ml/4 hrs | –
22 | Cc1c(F)cccc1C(=O)Nc1ccc(C(=O)N2Cc3ccnn3Cc3ccccc32)cc1 [Example 517, N-[4-(4H-Pyrazolo[5,1-c][1,4]benzodiazepin-5(10H)-ylcarbonyl)phenyl]-3-fluoro-2-methylbenzamide] | 210 nM | 411 mOsm/kg | 14.7 ml/4 hrs | –
23 | Cc1ccccc1C(=O)Nc1ccc(C(=O)N2Cc3cccn3Cc3ccccc32)cc1Cl [Example 530, N-[4-(5H-Pyrrolo[2,1-c][1,4]benzodiazepin-10(11H)-ylcarbonyl)-2-chlorophenyl]-2-methylbenzamide] | – | 914 mOsm/kg | 6 ml/4 hrs | –
24 | O=C(Nc1ccc(C(=O)N2Cc3ccc(CO)n3Cc3ccccc32)cc1)c1ccc(Cl)cc1Cl [Example 581, 2,4-Dichloro-N-[4-[[3-(hydroxymethyl)-5H-pyrrolo[2,1-c][1,4]benzodiazepin-10(11H)-yl]carbonyl]phenyl]benzamide] | 21 nM | 941 ± 219 mOsm/kg | 4 ± 1.2 ml/4 hrs | –
25 | O=C(Nc1ccc(C(=O)N2Cc3ccc(Cn4ccnc4)n3Cc3ccccc32)cc1)c1ccc(Cl)cc1Cl [Example 582, 2,4-Dichloro-N-[4-[[3-(1H-imidazol-1-ylmethyl)-5H-pyrrolo[2,1-c][1,4]benzodiazepin-10(11H)-yl]carbonyl]phenyl]benzamide] | 130 nM | 604 mOsm/kg | 9.5 ml/4 hrs | –
26 | NC(=O)CNC(C(=O)Nc1ccc(C(=O)N2Cc3cccn3Cc3ccccc32)cc1)c1ccccc1 (stereo not shown) [Example 585] | 280 nM | 1483 mOsm/kg | 3.3 ml/4 hrs | –
27 | CC(=O)OC(C(=O)Nc1ccc(C(=O)N2Cc3cccn3Cc3ccccc32)cc1)c1ccccc1 (stereo not drawn) [Example 587, α-(Acetyloxy)-N-[4-(5H-pyrrolo[2,1-c][1,4]benzodiazepin-10(11H)-ylcarbonyl)phenyl]benzeneacetamide] | 67 nM | 868 mOsm/kg | 9 ml/4 hrs | –
28 | O=C(CN1CCOCC1)Nc1ccc(C(=O)N2Cc3cccn3Cc3ccccc32)cc1 [Example 590, N-[4-(5H-pyrrolo[2,1-c][1,4]benzodiazepin-10(11H)-ylcarbonyl)phenyl]-4-morpholineacetamide] | – | 1355 mOsm/kg | 3 ml/4 hrs | inhibition at 10 µM (Rat Hepatic V1 Receptors): 89%
29 | COC(=O)c1ccc2n1Cc1ccccc1N(C(=O)c1ccc(NC(=O)c3ccc(Cl)cc3Cl)cc1)C2 [Example 593] | 210 nM | 577 mOsm/kg | 11.8 ml/4 hrs | –
